We go through five molecules from patent US9284368B2, “Substituted pyrazines as cadherin-11 inhibitors” (Georgetown University, priority 2009, dated 2016).

“Also recorded” adds a separate entry of the source.

One data set deals with T1, cadherin-11 (Homo sapiens, UniProt P55287).
T1 construct: Endogenous cadherin-11 expression in MDA-MB-231 breast and PC-3 prostate cancer cells was knocked down; endogenous in cells; host or cells: MDA-MB-231 breast cancer cells (PC-3 partly)
T1 sequence (P55287 54-796): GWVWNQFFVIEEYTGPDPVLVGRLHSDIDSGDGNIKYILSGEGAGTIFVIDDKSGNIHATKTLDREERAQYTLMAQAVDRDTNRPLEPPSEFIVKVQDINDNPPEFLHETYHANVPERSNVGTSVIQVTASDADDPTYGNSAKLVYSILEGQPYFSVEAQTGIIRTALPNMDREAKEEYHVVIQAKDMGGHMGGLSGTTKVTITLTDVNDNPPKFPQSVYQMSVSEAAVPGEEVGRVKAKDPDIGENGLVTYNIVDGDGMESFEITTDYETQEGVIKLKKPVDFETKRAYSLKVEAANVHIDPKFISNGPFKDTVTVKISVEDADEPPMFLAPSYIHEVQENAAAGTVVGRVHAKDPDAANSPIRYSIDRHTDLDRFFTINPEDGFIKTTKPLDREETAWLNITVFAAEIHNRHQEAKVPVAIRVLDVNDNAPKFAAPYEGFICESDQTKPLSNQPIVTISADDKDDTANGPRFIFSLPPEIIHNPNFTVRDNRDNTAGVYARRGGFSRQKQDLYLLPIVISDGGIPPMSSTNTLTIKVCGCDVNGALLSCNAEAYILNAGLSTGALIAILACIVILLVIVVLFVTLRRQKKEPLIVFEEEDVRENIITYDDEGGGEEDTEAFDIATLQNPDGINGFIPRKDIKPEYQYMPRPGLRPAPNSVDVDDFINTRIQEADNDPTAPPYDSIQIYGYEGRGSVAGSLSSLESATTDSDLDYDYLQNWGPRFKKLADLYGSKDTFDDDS
The data set can be described thus: Initial functional screening of in silico hits for block of cadherin-11 function. It counts as cell-based. To be noted: in vitro screening of commercially purchased in silico hits. The method, then: These two pharmacophores were further refined and screened again to maximize solubility and then retested using various in vitro assays. […] Finally, it was also observed that the compound was not cytotoxic up to a 100 μM dosage in vitro, as well as a pilot study in nude mice.
Cadherin-11 association with certain poor prognosis cancers, proliferation of basal-type breast cancer cells, and tumorigenesis in mice make it a viable therapeutic target for these malignancies. […] A computer-based method of structural modeling was used to predict conformations capable of binding these specific hydrophobic pockets. The ectodomain1 (EC1) dimer adhesive interface is formed by exchange of N-terminal β strands between two cadherin-11 molecules. The dimer interface has a large hydrophobic region (unique to type II cadherins) with two conserved tryptophan residues. […] This structure was used to base molecular simulations and produce pharmacophores designed to block one or both of the two adjacent regions (P1 and P2) predicted necessary for cadherin-11 function in cell-cell adhesion. Three in-silico strategies were implemented: 1) generation of flexible receptor conformations, 2) receptor-based dynamic pharmacophore screening and 3) small molecule docking simulations. The 29 most promising candidates identified by in silico screen were subjected to free energy simulations at 100 picosecond intervals, taking into consideration the induced fit effect, which accounts for conformation flexibility both before and after binding/docking simulations. […] These 29 compounds were purchased commercially and tested. Many of the compounds initially screened inhibited cadherin-11 function at 10 μM range, attesting to the in silico screening efficiency. […] The potency of Compound 1 likely stems from its shape and moderate structural flexibility, enabling it to accommodate to and bind tightly within the tryptophan binding pocket. Though this pocket is largely hydrophobic, a network of hydrogen bonds between Compound 1 and R23, H25, P88, S90 confers specificity and rigid binding. […]

For data set [1], the system named is MDA-MB-231 breast cancer cells. The data set can be described thus: Proliferation assay (crystal violet / luminescence). It is filed as cell-based. To be noted: MDA-MB-231 cells, 100 nM. How it is done:
(§1) For crystal violet assays, cells were plated in triplicate in 96-well tissue culture dishes at 4 separate densities. Cells were grown in DMEM supplemented with 5% fetal bovine serum for a period of 5 days. Dishes representing growth were stained with crystal violet on Days 1, 3 and 5 after plating, by removing growth medium, staining with 50 μL of crystal violet stain for 10 min, then gently washing in dH2O and allowing to dry overnight. Stained cells were solubilized in 100 μL 50/50 (v/v) 0.1M sodium citrate and ethanol for 15 min, and absorbance was read at 630λ.
(§2) For luminescence, the cells were plated in triplicate in 24-well white-walled tissue culture dishes (Wallac; Waltham, Mass.) and grown in DMEM supplemented with 5% fetal bovine serum for 5 days. On the fifth day, the cells were resuspended in an equal volume of Cell-Titer-Glo Luminescence Reagent (Promega; Madison, Wis.), which measures ATP, and incubated for 20 min at room temperature. The assay was measured using luminescence.
(§3) Cells were plated in triplicate at four separate densities and grown in DMEM with 5% FBS for five days. Cells were stained with crystal violet on days 1, 3, and 5 after plating, as described in Example 5. Absorbance was read at 630λ using a BioRad Ultramark Microplate Imaging System with Microplate Manager 5.1 software. […]

Data set [2] has as its system MDA-MB-231 breast cancer cells. The data set can be described thus: Soft agar colony growth assay. It is filed as cell-based. To be noted: MDA-MB-231 cells, 100 nM. The method, then: To further characterize proliferative ability of cancer cells lacking cadherin-11, anchorage independent growth was studied in the stable cell lines. 6-well tissue culture dishes were coated with 1.2 mL 0.6% Bacto-agar (Difco; Franklin Lakes, N.J.) in DMEM supplemented with 5% fetal bovine serum. Once set, the cells were plated in triplicate in 0.3% agar (15,000/1 mL in each well) and layered gently on top of the coated agar. The plates were incubated for 10 days to 2 weeks prior to reading using a colony counter (Omnicon; Manassas, Va.) and visualized using a SMZ-1500 stereoscope (Nikon; Tokyo, JP).
For luminescence, the cells were plated in triplicate in 24-well white-walled tissue culture dishes (Wallac; Waltham, Mass.) as described above. On the final day, cells were resuspended in an equal volume of Cell-Titer-Glo Luminescence Reagent (Promega; Madison, Wis.), which measures ATP, and incubated for 20 min at room temperature. The assay was measured using luminescence.
Cells (5,000) were plated in 0.3% agar layered on top of 0.6% agar in 35-mm^2 plates. After 2 weeks, the colonies were counted in an Omnicon 3600 automated colony counter (BioLogics, Inc.; Manassas, Va.) and visualized using a SMZ-1500 stereoscope (Nikon; Tokyo, JP). Confirmation assays were completed in 24-well dishes and analyzed using Cell-Titer-Glo Reagent (see proliferation assays).

Data set [3] has as its system MCF7 breast cancer cells. The data set can be described thus: Matrigel outgrowth (invasion) assay. It counts as cell-based. As to conditions: MCF7 breast cancer cells (expressing E and P-cadherin), 1 μM and 10 μM. The method, then: (§4) Upon finding significant differences in growth and migration in cancer cells with reduced cadherin-11 expression, invasive capability of the stable cell lines was explored in a 3-dimensional matrix. The cells were plated in duplicate in a 12-well glass-bottom dish (MatTek; Ashland, Mass.) coated with 150 μL of Matrigel (BD Biosciences; San Jose, Calif.). The cells (5,000 cells/100 μl medium) were gently plated on top of the Matrigel layer directly and incubated 30 min at 37° C. Growth medium (1 mL) was gently added to each well, and growth was visualized using a 5× objective on an AH2 Vanox inverted microscope (Olympus; Tokyo, JP) equipped with a CCD camera.
(§5) Cells (5,000 cells/100 μl medium) were plated atop 150 μL layer of Matrigel (BD Biosciences; San Jose, Calif.) in duplicate in 12-well glass-bottom dishes (MatTek; Ashland, Mass.) and incubated for 30 minutes at 37° C. Growth medium (1 mL) was gently added to each well. Growth was visualized using a 5× objective on AH2 Vanox inverted microscope (Olympus; Tokyo, JP).

For data set [4], the system named is MDA-MB-231 breast cancer cells. The data set can be described thus: Matrigel outgrowth (invasion) assay. It is filed as cell-based. To be noted: MDA-MB-231 cells, 100 nM. How it is done: as §4, §5
The test system of data set [5] is MDA-MB-435 melanoma cells. The data set can be described thus: Matrigel outgrowth (invasion) assay. It counts as cell-based. As to conditions: MDA-MB-435 melanoma cells (expressing N-cadherin), 1 μM and 10 μM. The method, then: as §4, §5
For data set [6], the system named is MCF7 breast cancer cells. The data set can be described thus: Proliferation assay. As to conditions: MCF7 breast cancer cells (expressing E and P-cadherin), 1 μM and 10 μM. It counts as cell-based. How it is done:
as §1, §2, §3

The test system of data set [7] is MDA-MB-435 melanoma cells. The data set can be described thus: Proliferation assay. To be noted: MDA-MB-435 melanoma cells (expressing N-cadherin), 1 μM and 10 μM. It counts as cell-based. The method, then:
as §1, §2, §3

Data set [8] has as its system PC-3 prostate cancer cells. The data set can be described thus: Growth phenotypes in PC-3 cells. It is filed as cell-based.
The next data set in a line: Cytotoxicity in vitro. It counts as cell-based. As to conditions: up to a 100 μM dosage in vitro.
The next data set relates to nude mice. The data set can be described thus: Pilot toxicity study in nude mice. It is filed as in vivo.
A short description of data set [9]: In vivo acute toxicity (OECD Up-and-Down Procedure). As to conditions: mouse, female Balb/c mice, IP injection, observed for 14 days. How it is done:
Female Balb/c mice, 8-12 weeks old, were obtained from the National Cancer Institute (Bethesda, Md.). A stock solution of 200 mg/ml of Compound 1 was prepared with a 1:1 ratio of DMSO and PEG. The working solution was diluted with PEG. Compound 1 (Sd-133) was administered at a constant volume (0.01 ml/1 g body weight) over the range of doses to be tested by varying the concentration of the dosing preparation according to the OECD Acute Toxicity-Up-and Down Procedure. […] Observations included toxicity onset time, symptoms, duration and the time elapsed for recovery or death. Based on the study, the LD50 of Compound 1 was estimated at 2000 mg/kg.

Data set [10] deals with L-cells with stably-transfected cadherin-11. The data set can be described thus: Cell aggregation assay, cadherin-11 transfected L-cells. It counts as cell-based. To be noted: cadherin-11 L-cells, shaken one hour at 100 rpm. The method, then: (§6) Cell aggregation assays were performed on L-cells with stably-transfected empty vector or cadherin-11. The cells were seeded and grown overnight, trypsinized with additional EDTA, resuspended in DMEM with 20% FBS, and counted. The cells were spun down and resuspended in DMEM containing no treatment, 0.5 mM EDTA, 0.25 mM EDTA, 0.1 mM EDTA, or cadherin-11 inhibitors including 1 TM of Compound 1 (Sd-133), 1 TM of Compound 2 (Sd-133A), 1 TM of Compound 3 (Sd-133B), 1 TM of Compound 11 (Sd-12), 1 TM of Compound 12 (Sd-48), 1 TM of Compound 17 (Sd-20), 1 TM of Compound 18 (Sd-51), 1 TM of Compound 19 (Sd-22), or 1 TM of Compound 20 (Sd-23). The cells were allowed to recover for one hour and were then put into uncoated 12 well plates and shaken for one hour at 100 rpm at 2.25×10^5 cells/mL. The cells were then counted using Microsizer Coulter Counter (Beckman Coulter, Inc; Brea, Calif.). Counts over 20 uM in length were considered aggregates, while counts below 20 uM were considered as single cells. The counts were confirmed by manual counting.

Data set [11] relates to L-cells with stably-transfected empty vector. The data set can be described thus: Cell aggregation assay, empty vector L-cells. It is filed as cell-based. As to conditions: shaken one hour at 100 rpm. The method, then:
as §6

Turning to `Oc1ccc(-c2cccnc2-c2ccccc2)cc1` [Compound 1], at cadherin-11, the “concentration range at which cadherin-11 is functionally blocked (effective range)” value (“concentration range” for short) was “nanomolar ranges”. The cell proliferation result in data set [1] is listed as “significantly blocked; also recorded: significantly inhibited”. The colony growth entry in data set [2] is reported as “significantly blocked; also recorded: significantly inhibited”. The figures for the invasion entry (in the data set on MCF7 breast cancer cells [3]; in [4]; in data set [5]) were “fails to block; also recorded: failed to alter”, “significantly blocked; also recorded: significantly inhibited” and “fails to block; also recorded: failed to alter”, respectively. The proliferation entry (in the data set on MCF7 breast cancer cells [6]; in [7]) was “fails to block; also recorded: failed to alter” throughout. For the same molecule, the growth phenotypes result in data set [8] is “partially inhibited”. In addition, the cytotoxicity result in the data set “Cytotoxicity in vitro” and in the data set on nude mice was “not cytotoxic” in each case. In [9], the LD50 (as a rule, the dose expected to kill half of the subjects tested) at 14 days was found to be 2000 mg/kg.
In the case of `Oc1ccc(-c2nc3ccccc3nc2-c2cccc(Cl)c2)cc1` [Compound 2], the aggregate formation result is “decrease” in data set [10] and “remained stable” in data set [11].
Turning to `Oc1ccc(-c2nc3ccccc3nc2-c2ccccc2)cc1` [Compound 3], the aggregate formation entry is given as “decrease” in [10] and “remained stable” in data set [11].
On to `O=C1c2ccccc2C(=O)c2c1oc1ccc3ccccc3c21` [Compound 9], for which the “concentration range” value on cadherin-11 is “nanomolar ranges”.
With `Oc1ccc2c(c1)c1ccccc1c1ncccc21` [Compound 10], the “concentration range” value on cadherin-11 is recorded as “nanomolar ranges”.
